Earlier results as cited in patent US12502339B2, “Foam compositions” (The Procter & Gamble Company, priority 2021, dated 2025).

Conditions: in water

| Structure (SMILES) | Water solubility at 20° C. (weight percent) |
| --- | --- |
| CCCC [Butane] | <0.01% weight percent |
| O=C=O [Carbon dioxide] | 0.8% weight percent |
| COC [Dimethyl ether] | 7% weight percent |
| [He] [Helium] | <0.01 weight percent |
| CC(C)C [Isobutane] | <0.01% weight percent |
| [N-]=[N+]=O [Nitrous oxide] | 0.12 weight percent |
